Measured values as given in US20100120679A1, “Targeting NBS1-ATM Interaction To Sensitize Cancer Cells To Radiotherapy And Chemotherapy” (SOUTHERN RESEARCH INSTITUTE, priority 2006, published 2010).
Ends that are not written are not given here. Peptide text beside a SMILES is read from it. * marks the point of attachment. Biotin = O=C1N[C@H]2[C@H](CS[C@H]2CCCCC(=O)*)N1

What was measured:
Hela cells [1] = conditions: cited from earlier work
HeLa cells [2] = test: Peptide internalization by immunofluorescence microscopy (fluorescein-conjugated streptavidin); assay type: cell-based, human; conditions: 10 μM for 1 h
Description: First, the internalization of the peptides was evaluated. Cells treated with the peptide were probed with a fluorescein-conjugated streptavidin antibody to determine the presence of the biotinylated peptides.

HeLa cells [3] = test: Length of time the peptides remain in cells (degradation, immunofluorescence)
Description: HeLa cells were treated with 10 μM R9, wtNIP, or scNIP for one hour and harvested at indicated time points before they were analyzed by immunofluorescence microscopy staining with an […].
Immunofluorescence microscopy: Exponentially growing cultures of cells were plated on sterile, […] coverslips, and incubated for 24 hours at 37° C. in 5% CO2 humidified air before they are treated with the NIP peptides at room temperature. Coverslips were washed with PBS and fixed with 4% paraformaldehyde-0.25% Triton X-100 for 15 minutes at room temperature, blocked for 30 minutes at room temperature, and incubated with FITC-conjugated streptavidin or anti-γH2AX and phospho-NBS1 antibodies (Rockland Immunochemicals, Gilbertsville, Pa.) for 1 hour at room temperature. Coverslips were then mounted with Vectashield Elite (Vector Labs, Burlingame, Calif.) and observed with a Leica fluorescence microscope. Images were captured at 40× magnification using a Q Imaging Retiga Exi digital camera and analyzed with Image Pro-Plus 5.1 software.
Because the peptides would be used in radiation studies, the length of time the peptides remain in cells was determined to ensure that the peptides would be present throughout the DNA repair process after IR.

NBS1-ATM interaction = target: T1, NBS1-ATM interaction (Homo sapiens, UniProt Q13315); test: Co-immunoprecipitation of ATM with NBS1 in peptide-treated cells; assay type: cell-based; conditions: HeLa cells, four hours after peptide treatment, unirradiated
T1 construct: endogenous in cells; host or cells: HeLa
Description: HeLa cells treated with the NIP peptides were irradiated (0 or 6Gy). Immunoprecipitation was performed with a rabbit NBS1 antibody, and Western blotting was performed with monoclonal antibodies against ATM, NBS1 or MRE11.
Immunoprecipitation and Western blotting: For co-immunoprecipitation of ATM, NBS1 and MRE11, cells were lysed 1 hour in ice-cold lysis buffer, which consisted of 10 mM Tris-HCl (pH 7.5), 100 mM NaCl, 5 mM EDTA, 0.5% NP-40, 5 mM Na3VO4, 1 mM NaF, and 1 mM PMSF. After centrifugation, supernatants were incubated with indicated antibodies. After extensive washing with the lysis buffer, immunoprecipitates were analyzed by immunoblot using specific antibodies. For western blotting analysis, samples (cell lysates or immunoprecipitates) were separated on 4-12% SDS-poly-acrylamide gels, transferred to nitrocellulose membranes, and probed with various antibodies.
wtNIP Abrogated the NBS1-ATM Interaction: To investigate whether R9-conjugated NIP peptides could inhibit NBS1-ATM interactions, coimmunoprecipitation experiments were performed in cells treated with the NIP peptides. Four hours after peptide treatment, HeLa cells were harvested and subjected to immunoprecipitation using an anti-NBS1 antibody. The immunoprecipitates were then blotted with anti-ATM, NBS1, and MRE11 antibodies.

[4] = test system: γ-H2AX foci in HeLa cells; test: IR-induced γ-H2AX focus formation, HeLa; assay type: cell-based, human; conditions: 10 μM peptide, 30 minutes after 6Gy IR
From the text: (§1) Error bars represent +/−1 SD, graphed are the mean of three independent experiments.
(§2) wtNIP Inhibits IR-Induced γ-H2AX and NBS1 pSer343 Focus Formation: One of the earliest responses to IR-induced DNA damage is the formation of γ-H2AX foci, which requires functional ATM (Burma et al., 2001; Furuta et al., 2003). […] Immunofluorescence microscopy was used to detect the presence of γ-H2AX foci in mock-irradiated or irradiated cells in the presence of R9, wtNIP or scNIP. […] Therefore, IR-induced γ-H2AX focus formation can be inhibited by wt-NIP.

[5] = test system: γ-H2AX foci in DU-145 cells; test: IR-induced γ-H2AX focus formation, DU-145; assay type: cell-based, human; conditions: 10 μM peptide, 6Gy
From the text: as §1, §2

[6] = test system: NBS1 phosphorylation on serine 343 in HeLa cells; test: IR-induced NBS1 pSer343 focus formation, HeLa; assay type: cell-based, human
From the text: as §1
To further support the idea that wtNIP can inhibit ATM-mediated DNA damage pathways, IR-induced NBS1 focus formation, an event considered to be an ATM-dependent process at the sites of DSBs (Lim et al., 2000) was investigated. NBS1 foci are a result of ATM-mediated NBS1 phosphorylation on serine 343. […] The average number of foci in mock-irradiated HeLa cells was 6, 8, and 6 for R9, wtNIP, and scNIP, respectively.

HeLa cells [7] = test: Colony formation assay (radiosensitivity), HeLa
Description: Shown in A (HeLa), C (MO59J) and D (GM9607) are the susvival curves after indicated doses of radiation. Error bars represent +/−1 SEM, graphed are the mean of three independent experiments.
Colony formation assays: To determine the radiosensitivity, the colony forming assay was incorporated. Cells were harvested with 0.125% trypsin-0.05% EDTA, pelleted and re-suspended in 1 ml fresh media with a 22 g needle to disperse clumps prior to hemocytometer counting in trypan blue. Cells were then plated at limiting dilutions in […] and allowed to adhere overnight. Cultures were treated with PBS, R9, wtNIP, or scNIP for 1 hour, and irradiated (0-6Gy). Fresh peptides were added every four hours until 24 hours after IR, when the medium was replaced with peptide-free medium. Cultures were incubated for 10-12 days, harvested and stained with 0.5% crystal violet in methanol. Colony number was determined with a dissecting microscope. A population of >50 cells was counted as one colony, and the number of colonies was expressed as a percentage of the value for untreated mock irradiated control cells. The surviving curves were plotted by linear regression analyses and the D0 value represents the radiation dose that leads to 37% of survival. To determine the radiosensitizing potential of the peptides in comparison to other small molecule inhibitors, the sensitizing enhancement ratio (SER) was calculated based on the dose of radiation required to reduce survival to 37% in the presence of scNIP or wtNIP. The following formula was used: […]
Statistics: To establish statistical significance, Student's t-test was incorporated. The data were first fit to each experimental group over a dose range of 0-6Gy. Significant differences were established at p<0.05.
FIG. 6A depicts the survival curves for HeLa cells treated with R9, wtNIP, or scNIP over a dose range of 0 to 6 Gy.

ATM = ATM (human, UniProt Q13315 2-3056); test: cell-based or functional assay
Chain of ATM (Q13315 other isoform, or with tags, fused parts or gaps limits assumed): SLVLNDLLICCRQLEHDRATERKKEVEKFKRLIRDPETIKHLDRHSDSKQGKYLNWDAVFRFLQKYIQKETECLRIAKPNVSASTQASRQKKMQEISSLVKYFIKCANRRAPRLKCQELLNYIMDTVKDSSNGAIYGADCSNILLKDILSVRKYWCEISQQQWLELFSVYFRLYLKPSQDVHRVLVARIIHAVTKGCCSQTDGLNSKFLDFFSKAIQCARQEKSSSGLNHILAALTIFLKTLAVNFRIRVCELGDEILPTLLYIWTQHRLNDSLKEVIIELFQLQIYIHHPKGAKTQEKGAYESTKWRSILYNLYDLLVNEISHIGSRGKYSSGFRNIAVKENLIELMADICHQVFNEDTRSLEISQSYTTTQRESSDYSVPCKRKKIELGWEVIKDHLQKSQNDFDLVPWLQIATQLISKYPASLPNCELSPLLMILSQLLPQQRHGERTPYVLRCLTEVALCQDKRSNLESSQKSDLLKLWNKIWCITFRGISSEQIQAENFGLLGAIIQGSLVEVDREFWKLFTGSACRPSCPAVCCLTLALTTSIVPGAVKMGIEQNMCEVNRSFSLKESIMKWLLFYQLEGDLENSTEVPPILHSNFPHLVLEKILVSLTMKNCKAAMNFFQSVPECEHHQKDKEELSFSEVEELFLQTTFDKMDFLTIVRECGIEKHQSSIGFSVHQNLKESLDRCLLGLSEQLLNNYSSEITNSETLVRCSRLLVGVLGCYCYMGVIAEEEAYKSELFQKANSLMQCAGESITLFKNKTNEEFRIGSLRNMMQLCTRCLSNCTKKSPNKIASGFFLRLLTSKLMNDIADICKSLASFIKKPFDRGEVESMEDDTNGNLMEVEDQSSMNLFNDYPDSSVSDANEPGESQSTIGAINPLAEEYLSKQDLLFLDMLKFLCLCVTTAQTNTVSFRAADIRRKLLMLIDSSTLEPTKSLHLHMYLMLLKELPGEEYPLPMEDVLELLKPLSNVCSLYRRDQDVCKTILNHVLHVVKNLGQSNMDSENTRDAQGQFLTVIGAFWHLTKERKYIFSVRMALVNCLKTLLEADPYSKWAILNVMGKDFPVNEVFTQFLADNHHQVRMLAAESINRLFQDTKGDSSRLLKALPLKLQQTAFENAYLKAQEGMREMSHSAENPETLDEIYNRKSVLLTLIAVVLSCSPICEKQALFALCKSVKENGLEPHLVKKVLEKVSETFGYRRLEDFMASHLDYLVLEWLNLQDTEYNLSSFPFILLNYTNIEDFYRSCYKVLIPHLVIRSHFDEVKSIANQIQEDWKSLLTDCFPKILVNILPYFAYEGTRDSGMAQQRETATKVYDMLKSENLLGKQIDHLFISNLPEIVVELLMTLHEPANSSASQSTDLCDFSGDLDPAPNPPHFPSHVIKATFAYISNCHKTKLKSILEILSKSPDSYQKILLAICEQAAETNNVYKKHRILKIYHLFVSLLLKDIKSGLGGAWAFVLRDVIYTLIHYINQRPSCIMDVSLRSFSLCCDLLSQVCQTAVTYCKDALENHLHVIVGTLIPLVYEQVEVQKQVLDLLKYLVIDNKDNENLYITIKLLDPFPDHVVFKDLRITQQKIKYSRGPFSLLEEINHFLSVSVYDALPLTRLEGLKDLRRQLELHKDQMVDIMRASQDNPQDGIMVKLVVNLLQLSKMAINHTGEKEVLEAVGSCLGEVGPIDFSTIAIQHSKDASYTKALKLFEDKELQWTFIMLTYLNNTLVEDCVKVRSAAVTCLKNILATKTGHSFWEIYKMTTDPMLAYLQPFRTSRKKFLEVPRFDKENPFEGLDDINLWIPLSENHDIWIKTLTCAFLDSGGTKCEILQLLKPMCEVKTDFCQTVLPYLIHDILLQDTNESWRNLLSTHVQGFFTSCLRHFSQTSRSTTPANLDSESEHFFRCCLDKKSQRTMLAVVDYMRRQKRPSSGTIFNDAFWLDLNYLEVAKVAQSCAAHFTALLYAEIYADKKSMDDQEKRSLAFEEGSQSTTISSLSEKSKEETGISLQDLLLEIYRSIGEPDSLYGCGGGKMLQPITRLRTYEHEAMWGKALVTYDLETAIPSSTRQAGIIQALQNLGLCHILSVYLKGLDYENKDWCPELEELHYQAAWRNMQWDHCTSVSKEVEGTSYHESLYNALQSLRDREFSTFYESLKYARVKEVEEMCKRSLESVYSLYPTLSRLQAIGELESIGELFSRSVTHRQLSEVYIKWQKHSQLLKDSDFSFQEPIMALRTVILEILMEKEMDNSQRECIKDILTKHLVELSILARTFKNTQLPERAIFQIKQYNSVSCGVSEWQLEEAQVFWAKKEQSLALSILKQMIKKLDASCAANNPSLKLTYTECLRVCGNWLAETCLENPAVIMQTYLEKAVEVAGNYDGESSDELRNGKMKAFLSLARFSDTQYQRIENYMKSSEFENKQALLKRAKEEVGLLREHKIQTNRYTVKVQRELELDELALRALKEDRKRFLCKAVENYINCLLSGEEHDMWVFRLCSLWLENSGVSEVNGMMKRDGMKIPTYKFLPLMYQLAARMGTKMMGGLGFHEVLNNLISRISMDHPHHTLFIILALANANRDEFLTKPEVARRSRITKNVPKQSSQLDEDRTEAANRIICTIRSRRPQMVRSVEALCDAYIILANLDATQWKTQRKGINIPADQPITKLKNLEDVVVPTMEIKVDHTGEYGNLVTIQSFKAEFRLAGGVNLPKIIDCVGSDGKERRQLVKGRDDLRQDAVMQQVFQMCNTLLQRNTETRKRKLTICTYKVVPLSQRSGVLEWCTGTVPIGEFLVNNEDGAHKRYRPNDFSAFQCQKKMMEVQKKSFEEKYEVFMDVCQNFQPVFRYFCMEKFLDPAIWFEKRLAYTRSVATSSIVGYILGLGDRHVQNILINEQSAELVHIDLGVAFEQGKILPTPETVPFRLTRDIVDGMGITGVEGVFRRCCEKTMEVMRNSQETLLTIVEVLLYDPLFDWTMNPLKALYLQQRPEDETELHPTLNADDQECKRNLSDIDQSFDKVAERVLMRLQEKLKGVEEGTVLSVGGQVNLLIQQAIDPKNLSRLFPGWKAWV

In the case of `O=c1cc(-c2cccc3c2Sc2ccccc2S3)oc(N2CCOCC2)c1` [KU55933], the radiosensitivity (Hela cells [1]; Hela cells) is listed as “significant increase in radiosensitivity” and the “increase in sensitivity to etoposide” value (Hela cells [1]) is listed as no more than 35.5 fold.

For `CC(C)C[C@H](NC(=O)[C@H](CCC(=O)O)NC(=O)[C@H](CCC(=O)O)NC(=O)[C@H](CC(C)C)NC(=O)[C@H](CC(=O)O)NC(=O)[C@H](C)NC(=O)[C@H](CC(=O)O)NC(=O)[C@H](CO)NC(=O)[C@H](CCCNC(=N)N)NC(=O)[C@H](CCCNC(=N)N)NC(=O)[C@H](CCCNC(=N)N)NC(=O)[C@H](CCCNC(=N)N)NC(=O)[C@H](CCCNC(=N)N)NC(=O)[C@H](CCCNC(=N)N)NC(=O)[C@H](CCCNC(=N)N)NC(=O)[C@H](CCCNC(=N)N)NC(=O)[C@H](CCCNC(=N)N)NC(=O)CCCC[C@@H]1SC[C@@H]2NC(=O)N[C@@H]21)C(=O)N[C@@H](CCCCN)C(=O)O` [scNIP] (Biotin-RRRRRRRRRSDADLEELK-OH), the “cellular uptake of peptide” value (HeLa cells [2]) was “significant cellular uptake of peptide”, the “localization of internalized peptide” value (HeLa cells [2]) was “cytoplasmic and nuclear compartments” and the “fluorescent intensity levels of peptide in cells” value (HeLa cells [3]; 8 hours) was “much weaker”. The “peptide staining in cells” value (HeLa cells [3]; 12 hours) was “much weaker cytoplasmic staining with no observed nuclear staining”, the “peptide staining in cells” value (HeLa cells [3]; 24 hours) was “no detectable presence of the peptides” and the “presence of peptides in cells” value (HeLa cells [3]; within 2 hours of treatment) was “strong distribution”. For the same molecule, the “fluorescent intensity levels of peptide in cells” value (HeLa cells [3]; within 4 hours) was “began to decrease”, the “ATM-NBS1 association (anti-NBS1 immunoprecipitation, anti-ATM blot)” value (NBS1-ATM interaction) was “did not affect the NBS1-ATM interaction” and the “average number of γ-H2AX foci/nucleus” value [4] was 41 foci/nucleus. The “IR-induced γ-H2AX focus formation” value [5] was “did not affect IR-induced focus formation”, the “NBS1 pSer343 foci per nucleus” value ([6]; HeLa cells after treatment with 6-Gy IR) was 31 foci per nucleus and the “average number of NBS1 pSer343 foci” value ([6]; mock-irradiated HeLa cells) was 6. The “D0 (mean lethal dose required for 37% survival)” value (HeLa cells [7]) was 3.0, the “effect of peptide on clonogenic survival” value (HeLa cells [7]; 10 μM peptide) was “no significant difference between treatment groups” and the “effect on radiosensitivity / IR-induced survival” value (HeLa cells [7]; dose range 0 to 6 Gy) was “Neither R9 nor scNIP affects radiosensitivity”.

With Biotin-RRRRRRRRRKEESLADDLF [wild-type NBS1 inhibitory peptide (wtNIP)] the “SER (sensitizing enhancement ratio), DU-145” value (ATM) was 1.46, the “SER (sensitizing enhancement ratio), HeLa” value (ATM) was 1.58 and the “SER (sensitizing enhancement ratio), M059J cells (defective DNA-PKcs)” value (ATM) was 1.83. For the same molecule, the “sensitizer enhancement ratio at 2Gy, HeLa” value (ATM) was 1.66, the “sensitizer enhancement ratio at 4Gy, HeLa” value (ATM) was 2.61 and the “sensitizer enhancement ratio at 6Gy, HeLa” value (ATM) was 3.12.
